We go through 9 molecules from paper PMC10793205, “Differential transmetallation of complexes of the anti-cancer thiosemicarbazone, Dp4e4mT: effects on anti-proliferative efficacy, redox activity, oxy-myoglobin and oxy-hemoglobin oxidation” (Chemical Science, 2023).

“Also recorded” adds a separate entry of the source. Where two headings read alike, the source gives them in different places. A value given as a limit tells only on which side of the number the result lay.

The subject of one series is SK-N-MC cells. Put plainly: MTT cellular proliferation assay, SK-N-MC neuroepithelioma cells. The settings on record: for IC50: SK-N-MC, 37 °C, MTT, mean ± SD (3 experiments); for Therapeutic index SK-N-MC: IC50 of MRC-5 cells/IC50 of SK-N-MC cells, 72 h/37 °C. It counts as cell-based, human. The method, then: The anti-proliferative activity of Dp4e4mT relative to its complexes with Fe(III), Co(III), Ni(II), Cu(II), Zn(II), Ga(III), and Pd(II) was examined over incubation periods of 24-, 48-, and 72 h/37 °C (Table 2). These studies were performed using human SK-N-MC neuroepithelioma and AsPC-1 pancreatic adenocarcinoma cells that we have previously examined to assay other ligands.[15,28,43] […]
(§1) All cell lines were procured from the American Type Culture Collection (ATCC; Manassas, VA). The SK-N-MC neuroepithelioma cell line and the mortal MRC-5 fibroblasts were cultured in minimum essential medium (Sigma-Aldrich), while the AsPC-1 cell line was cultured in Roswell Park Memorial Institute 1640 medium (Thermo Fisher Scientific, MA, USA). Both media were supplemented with 10% fetal calf serum, non-essential amino acids (1 mM), sodium pyruvate (1 mM), L-glutamine (2 mM), penicillin (100 U/mL), streptomycin (100 U/mL), and Fungizone (0.5 µg/mL). Cells were maintained at 37 °C in an incubator under a humidified atmosphere with 5% CO 2, following established protocols. 11 Cellular Proliferation Assay
(§2) Cellular proliferation was evaluated through the established 3-(4,5-dimethylthiazol-2-yl)-2,5-diphenyltetrazolium bromide (MTT) proliferation assay, validated by viable cell counts.12 […]
(§3) Ligands and complexes were dissolved in DMSO to make a stock solution of 10 mM, subsequently diluted in culture media. For cell culture experiments, the DMSO's maximum concentration remained below 0.5% (v/v), with no discernible impact on proliferation.12 MTT […]
(§4) Trypan blue staining.12 Analysis of the data was executed employing MARS Data Analysis Software (BMG LabTech; version 3.30). The concentration of agents necessary to inhibit cellular proliferation by 50% (IC 50) was then calculated. […]

Another series concerns SK-N-MC and AsPC-1 cells. In words: MTT cellular proliferation assay, values stated over both tumor cell-types. The settings on record: for Mean therapeutic index: average of the therapeutic indices for SK-N-MC and AsPC-1 vs MRC-5, 72 h/37 °C; for IC50: SK-N-MC and AsPC-1, after 72 h, read-out: IC50 (range over both cell-types). It counts as cell-based, human. Here is the method: The anti-proliferative activity of Dp4e4mT relative to its complexes with Fe(III), Co(III), Ni(II), Cu(II), Zn(II), Ga(III), and Pd(II) was examined over incubation periods of 24-, 48-, and 72 h/37 °C (Table 2). These studies were performed using human SK-N-MC neuroepithelioma and AsPC-1 pancreatic adenocarcinoma cells that we have previously examined to assay other ligands.[15,28,43]
To examine the selectivity of the Dp4e4mT complexes against neoplastic versus normal mortal cells, their anti-proliferative efficacy was compared to mortal MRC-5 fibroblasts after a 72 h/37 °C incubation (Table 3). […] To further examine selectivity, an in vitro therapeutic index was calculated as per our previous investigations.[28,57,59,66,67] This parameter is derived from the ratio of the IC50 of MRC-5 cells/IC50 of SK-N-MC or AsPC-1 cells; with high ratios indicating greater selective anti-proliferative activity against neoplastic cells (Table 3). The mean therapeutic index is the average of the therapeutic indices calculated for both tumor cell-types. […] The mean therapeutic index of Dp4e4mT exceeded that obtained for clinically trialed DpC (157), as well as that of Dp44mT (112) and DFO (6). […]
as §1, §2, §3, §4
(Tetrazolium dyes change colour on reduction, which living cells bring about.)

Another series has as its target T1, oxy-Mb (Homo sapiens, UniProt P02144).
T1 sequence (P02144 1-154): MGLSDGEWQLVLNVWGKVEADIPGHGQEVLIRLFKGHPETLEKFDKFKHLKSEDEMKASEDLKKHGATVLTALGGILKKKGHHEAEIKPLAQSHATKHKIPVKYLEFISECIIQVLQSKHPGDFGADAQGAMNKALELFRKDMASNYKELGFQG
Put plainly: Oxidation of purified oxy-Mb to met-Mb (UV-vis). As to conditions: 10 μM agent, oxy-Mb 40 μM; for oxy-Mb oxidation (met-Mb generation): 3 h incubation, 20 °C; for oxy-Mb oxidation (in words): 1–3 h/20 °C. Format: biochemical. The text has this: As such, it was important to examine the effect of the Dp4e4mT complexes on oxy-Hb and oxy-Mb oxidation (Fig. 6 and 7). Comparisons were made to three controls, namely DFO, Dp44mT, and DpC, as well as their Fe(III) complexes. […] In contrast, the Fe(III) complexes of Dp44mT and DpC were positive controls, as they induce oxidation of oxy-Mb.[28,39,42]
Fig. 6 (A and B) Investigation of the effects of Dp4e4mT and its Fe(III), Co(III), Ni(II), Cu(II), Zn(II), Ga(III), and Pd(II) complexes versus the positive controls DFO, Dp44mT, DpC and their Fe(III) complexes (10 μM) on met-Mb generation (% zero time) after an incubation of 1–3 h/20 °C with purified oxy-Mb (40 μM). Results are mean ± SD (3 experiments).
Spectroscopic Examination of Met-Mb and Met-Hb Formation from Oxy-Mb and Oxy- […]
Oxy-Mb and oxy-Hb solutions were prepared following established protocols.8, 17 In brief, solutions of reduced Mb and Hb in PBS (pH 7.2) were prepared by adding 1.2 mL of Na2S2O4 (12 mM) to 38 mL of met-Mb and met-Hb solution (40 μM). 17 Subsequently, oxy-Mb and oxy-Hb were generated by gently passing 150 mL of oxygen (from an air-filled syringe) through the solution containing reduced Mb and Hb, effectively eliminating any residual Na2S2O4. Following this, the oxy-Mb and oxy-Hb solutions were passed through a PD-10 column prepacked with 8.3 mL of Sephadex G-25 and equilibrated with PBS (pH 7.2). 17 In experiments examining the activity of the agents, all complexes were dissolved in 1,2-propanediol, then diluted to 10 µM in PBS (pH 7.2). The experiments were conducted over incubations of 0 to 3 h with the agents. UV-Vis spectra covering the range of 300 to 700 nm were recorded at a temperature of 20°C using a Shimadzu UV−Vis spectrophotometer (UV-1800; Shimadzu, Kyoto, Japan). Concentrations of met-Mb and met-Hb, as well as reduced-Mb and reduced-Hb, were determined at 409 nm and 435 nm, respectively. Concentrations of oxy-Mb and oxy-Hb were determined at 544 nm and 582 nm, respectively. 17

Where [1] appears, read: listed as Dp4e4mT Co(III) complex.
Where [2] appears, read: listed as Dp4e4mT Pd(II) complex.

The IC50 is the concentration that inhibits the measured activity by half. Consider `CCN(C)C(=S)NN=C(c1ccccn1)c1ccccn1` [Dp4e4mT, di-2-pyridylketone-4-ethyl-4-methyl-3-thiosemicarbazone], for which the IC50 in the series on SK-N-MC cells (Homo sapiens, 24 h) was greater than 25000 nM; in the series with SK-N-MC cells (Homo sapiens, 48 h) it was 43 ± 6 nM; in the series on SK-N-MC cells (Homo sapiens, 72 h), 6 ± 1 nM. Besides, the “Therapeutic index SK-N-MC” value with SK-N-MC cells was 301. The Mean therapeutic index in the series with SK-N-MC and AsPC-1 cells was 210. Besides, on oxy-Mb, the “oxy-Mb oxidation (met-Mb generation)” value is 140 % of the control.

Take `CN(C)C(=S)NN=C(c1ccccn1)c1ccccn1` [Dp44mT, di-2-pyridylketone 4,4-dimethyl-3-thiosemicarbazone, reference compound]: the IC50 with SK-N-MC cells (Homo sapiens, 24 h) was greater than 25000 nM; with SK-N-MC cells (Homo sapiens, 48 h), 43 ± 6 nM; in the series on SK-N-MC cells (Homo sapiens, 72 h), 6 ± 1 nM. Further, the “Therapeutic index SK-N-MC” value in the series with SK-N-MC cells is 152. Besides, the Mean therapeutic index with SK-N-MC and AsPC-1 cells turned out to be 112. Also, on oxy-Mb, the “oxy-Mb oxidation (met-Mb generation)” value was 129 % of the control.

For `CN(C(=S)NN=C(c1ccccn1)c1ccccn1)C1CCCCC1` [DpC, di-2-pyridylketone 4-cyclohexyl-4-methyl-3-thiosemicarbazone, reference compound], the IC50 in the series on SK-N-MC cells (Homo sapiens, 24 h) is 22300 ± 83 nM; in the series with SK-N-MC cells (Homo sapiens, 48 h), 88 ± 7 nM; in the series with SK-N-MC cells (Homo sapiens, 72 h), 28 ± 9 nM; with SK-N-MC and AsPC-1 cells (Homo sapiens) it was 18 to 28 nM. Further, in the series with SK-N-MC cells, the “Therapeutic index SK-N-MC” value amounted to 149. In the series on SK-N-MC and AsPC-1 cells, the Mean therapeutic index came out at 157.

Turning to `CCN(C)C([S-])=NN=C(c1ccccn1)c1ccccn1.CCN(C)C([S-])=NN=C(c1ccccn1)c1ccccn1.[Co+3]` [[Co(Dp4e4mT)2]^+], the “Therapeutic index SK-N-MC” value in the series on SK-N-MC cells is 4. Also, the IC50 is 5498 ± 4 nM in the series on SK-N-MC cells (24 h); 1470 ± 61 nM in the series with SK-N-MC cells (48 h); 818 ± 51 nM with SK-N-MC cells (72 h); 262 to 1570 nM with SK-N-MC and AsPC-1 cells (setting [1]); 818 to 1570 nM with SK-N-MC and AsPC-1 cells. The Mean therapeutic index is 3 in the series on SK-N-MC and AsPC-1 cells; 3–9 in the series on SK-N-MC and AsPC-1 cells (setting [1]). Moreover, the “oxy-Mb oxidation (in words)” value at oxy-Mb is on record as “minimal impact”; at oxy-Mb (setting [1]), “no appreciable oxidation of oxy-Mb”.

For the molecule `CCN(C)C([S-])=NN=C(c1ccccn1)c1ccccn1.[Cl-].[Cu+2]` [[Cu(Dp4e4mT)Cl]], the “Therapeutic index SK-N-MC” value in the series on SK-N-MC cells was 130. Besides, the concentration for half-maximal inhibition (IC50) in the series with SK-N-MC cells (24 h) came to 492 ± 34 nM; in the series with SK-N-MC cells (48 h) it was 31 ± 8 nM; in the series with SK-N-MC cells (72 h), 3 ± 1 nM. In the series with SK-N-MC and AsPC-1 cells, this molecule had a Mean therapeutic index of 130. On oxy-Mb, the “oxy-Mb oxidation (in words)” value is recorded as “did not significantly lead to oxidation of oxy-Mb”.

Regarding `CCN(C)C([S-])=NN=C(c1ccccn1)c1ccccn1.CCN(C)C([S-])=NN=C(c1ccccn1)c1ccccn1.[Fe+3]` [[Fe(Dp4e4mT)2]^+], the “Therapeutic index SK-N-MC” value with SK-N-MC cells is 9. For the same molecule, the IC50 in the series with SK-N-MC cells (24 h) stood at 2680 ± 71 nM; with SK-N-MC cells (48 h), 1530 ± 37 nM; with SK-N-MC cells (72 h), 214 ± 5 nM. In addition, the Mean therapeutic index with SK-N-MC and AsPC-1 cells was 9; with SK-N-MC and AsPC-1 cells (listed as Dp4e4mT Fe(III) complex) it was 3–9. Besides, the “oxy-Mb oxidation (met-Mb generation)” value on oxy-Mb was 213 % of the control.

For the molecule `CCN(C)C([S-])=NN=C(c1ccccn1)c1ccccn1.CCN(C)C([S-])=NN=C(c1ccccn1)c1ccccn1.[Ga+3]` [[Ga(Dp4e4mT)2]^+], the “Therapeutic index SK-N-MC” value in the series on SK-N-MC cells was found to be 192. Also, the IC50 in the series on SK-N-MC cells (24 h) is 16220 ± 7 nM; in the series with SK-N-MC cells (24 h, listed as Dp4e4mT Ga(III) complex), 16200 to 19400 nM; in the series with SK-N-MC cells (48 h), 43 ± 6 nM; with SK-N-MC cells (72 h), 4 ± 1 nM. Moreover, in the series on SK-N-MC and AsPC-1 cells, the Mean therapeutic index was 173. Also, the “oxy-Mb oxidation (in words)” value at oxy-Mb was “significantly increased oxy-Mb and oxy-Hb oxidation”; at oxy-Mb (listed as Dp4e4mT Ga(III) complex), “induced marked oxy-Mb oxidation”.

For `CCN(C)C([S-])=NN=C(c1ccccn1)c1ccccn1.CCN(C)C([S-])=NN=C(c1ccccn1)c1ccccn1.[Ni+2]` [[Ni(Dp4e4mT)2]], in the series with SK-N-MC cells, the “Therapeutic index SK-N-MC” value was 250. Besides, the half-inhibitory concentration (IC50) in the series on SK-N-MC cells (24 h) was greater than 25000 nM; with SK-N-MC cells (48 h) it was 75 ± 25 nM; with SK-N-MC cells (72 h) it was 18 ± 6 nM; in the series on SK-N-MC and AsPC-1 cells, 18 to 76 nM. Besides, the Mean therapeutic index in the series on SK-N-MC and AsPC-1 cells is given as 156. Besides, on oxy-Mb, the “oxy-Mb oxidation (in words)” value is “low activity; also recorded: minimal impact”.

Take `CCN(C)C([S-])=NN=C(c1ccccn1)c1ccccn1.[Cl-].[Pd+2]` [[Pd(Dp4e4mT)Cl]]: in the series with SK-N-MC cells, the “Therapeutic index SK-N-MC” value was 3. The IC50 was greater than 25000 nM in the series on SK-N-MC cells (24 h); 661 ± 62 nM in the series with SK-N-MC cells (48 h); 285 ± 121 nM with SK-N-MC cells (72 h); 262 to 1570 nM with SK-N-MC and AsPC-1 cells. Also, the Mean therapeutic index with SK-N-MC and AsPC-1 cells is 3; in the series with SK-N-MC and AsPC-1 cells (setting [2]) it was 3–9. In addition, the results for the “oxy-Mb oxidation (in words)” value at oxy-Mb and on oxy-Mb (setting [2]) were “minimal impact” and “no appreciable oxidation of oxy-Mb”, respectively.
